Results reported in patent publication US10292973B2, “Covalent irreversible inhibitors of USP7 as anti-cancer agents” (PROGENRA, INC., priority 2015, dated 2019).
Entries after “also recorded” stand apart in the source; their conditions may differ.

Legend:
USP7core WT = molecular target: T1, USP7core WT (Homo sapiens, UniProt Q93009); assay: Covalent adduct formation with purified USP7core WT by LC-MS; assay type: binding; conditions: 5 μM USP7core WT, 100 μM compound, room temperature, 4 h
T1 construct: 5 μM purified USP7core WT or active site cysteine mutant C223A were incubated
T1 sequence (Q93009 214-521 limits assumed): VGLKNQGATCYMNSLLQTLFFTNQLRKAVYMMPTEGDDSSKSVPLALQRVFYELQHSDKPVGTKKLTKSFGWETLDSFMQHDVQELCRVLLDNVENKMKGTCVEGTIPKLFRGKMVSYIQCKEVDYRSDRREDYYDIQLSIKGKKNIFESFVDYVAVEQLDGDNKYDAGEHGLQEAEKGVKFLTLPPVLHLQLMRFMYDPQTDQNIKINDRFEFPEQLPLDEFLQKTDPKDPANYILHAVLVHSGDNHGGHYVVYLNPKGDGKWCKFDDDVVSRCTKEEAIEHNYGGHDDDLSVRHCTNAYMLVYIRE
Experimental: (§1) FIG. 4 provides data showing an example of the covalent irreversible nature of disclosed USP7 inhibitors. 5 μM purified USP7core WT or active site cysteine mutant C223A were incubated with 100 μM Compound 5 or DMSO at room temperature for 4 hrs, and then the protein/compound reaction products were mixed with equal volume of 0.1% Trifluoroacetic acid (TFA) before LC-MS injection. The samples were analyzed by reverse-phase liquid chromatography coupled to UV and MS detection (Agilent, 6220 Accurate-Mass Time-of-Flight (TOF) LC/MS). […] 5μM purified USP7core WT or C223A were incubated with 100 μM of an exemplary compound of the present invention (for example, Compound 5) or DMSO at room temperature for 4 h, and then the protein/compound reaction products were mixed with equal volume of 0.1% Trifluoroacetic acid (TFA). The samples were analyzed by reverse-phase liquid chromatography coupled to UV and MS detection (Agilent, 6220 Accurate-Mass Time-of-Flight (TOF) LC/MS).

USP7core C223A = USP7core C223A (Homo sapiens, UniProt Q93009, C223A); assay: Covalent adduct formation with active site cysteine mutant USP7core C223A by LC-MS; assay type: binding; conditions: 5 μM USP7core C223A, 100 μM compound, room temperature, 4 h
Sequence of USP7core C223A (Q93009 214-521 C223A limits assumed): as the sequence (Q93009 214-521 limits assumed) above, with C10A counted along it
Experimental: as §1

USP7 = molecular target: T2, USP7 (Homo sapiens, UniProt Q93009); assay: DUB activity of USP7 immunoprecipitated from treated Jurkat cells (Ub-EKL assay), pulse treatment and washout; assay type: cell-based; conditions: washed; for USP7 catalytic activity returned: Jurkat cells exposed 2 hours, immunoprecipitated USP7
T2 construct: USP7 was immuno-precipitated from lysates and USP7 activity measured; endogenous in cells; host or cells: Jurkat cells
T2 sequence (Q93009 whole entry): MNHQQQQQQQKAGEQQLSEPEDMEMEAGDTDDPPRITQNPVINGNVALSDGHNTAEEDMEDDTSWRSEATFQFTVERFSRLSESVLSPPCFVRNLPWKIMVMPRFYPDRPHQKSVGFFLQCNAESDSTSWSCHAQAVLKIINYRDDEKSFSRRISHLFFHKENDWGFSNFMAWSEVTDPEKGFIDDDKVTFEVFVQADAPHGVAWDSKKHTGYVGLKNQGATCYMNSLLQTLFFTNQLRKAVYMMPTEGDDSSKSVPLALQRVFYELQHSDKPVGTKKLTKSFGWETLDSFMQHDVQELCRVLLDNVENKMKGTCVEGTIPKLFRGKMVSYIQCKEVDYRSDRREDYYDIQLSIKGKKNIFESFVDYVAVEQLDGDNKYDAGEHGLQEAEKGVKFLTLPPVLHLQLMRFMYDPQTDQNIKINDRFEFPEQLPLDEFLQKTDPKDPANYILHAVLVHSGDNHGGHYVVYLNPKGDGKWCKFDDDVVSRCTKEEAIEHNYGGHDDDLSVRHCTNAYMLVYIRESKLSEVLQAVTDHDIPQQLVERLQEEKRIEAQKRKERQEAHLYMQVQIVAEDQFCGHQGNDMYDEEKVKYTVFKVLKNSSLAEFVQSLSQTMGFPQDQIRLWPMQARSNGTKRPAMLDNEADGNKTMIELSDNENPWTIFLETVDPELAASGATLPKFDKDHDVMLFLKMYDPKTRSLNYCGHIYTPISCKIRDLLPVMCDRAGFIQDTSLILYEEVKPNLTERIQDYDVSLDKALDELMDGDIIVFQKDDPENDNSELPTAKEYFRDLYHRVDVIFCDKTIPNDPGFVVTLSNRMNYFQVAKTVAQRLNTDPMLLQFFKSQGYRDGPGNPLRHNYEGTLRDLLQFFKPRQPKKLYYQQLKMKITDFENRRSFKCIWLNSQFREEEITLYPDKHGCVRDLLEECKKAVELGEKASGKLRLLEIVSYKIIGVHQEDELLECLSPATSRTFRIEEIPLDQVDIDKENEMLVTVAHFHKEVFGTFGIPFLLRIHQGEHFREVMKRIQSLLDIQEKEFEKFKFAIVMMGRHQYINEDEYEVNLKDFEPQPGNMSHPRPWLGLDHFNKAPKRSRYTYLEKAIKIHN
Experimental: FIG. 5A-FIG. 5C graphically illustrate examples of the disclosed USP7 inhibitors of the invention that are irreversible inhibitors. Jurkat cells were treated with 10 μM USP7i for indicated time period (FIG. 5A) or pulse treated for 2 h with 10 μM compound 5 (FIG. 5B), washed and incubated for the indicated time period followed by DUB activity measurement of immunoprecipitated USP7 as well as total cell lysate (FIG. 5C) using Ub-EKL assay as described previously (U.S. Pat. No. 8,680,139). A portion of the immunoprecipitated USP7 is separated on 10% SDS-PAGE and immunoblotted with anti-USP7 antibody to detect the level of USP7 protein (shown at the top of graphs in FIG. 5A and FIG. 5B). […] Jurkat cells were exposed to compound 5 for 2 hours and the compounds were washed away followed by incubation for various time points. Cells were harvested, lysed and their USP7 immunoprecipitated and washed with buffer. […] Jurkat cells were incubated with an exemplary compound of the present invention (e.g., compound 5), washed, and incubated for an additional 0-96 h. USP7 was immuno-precipitated from lysates and USP7 activity measured. […] Total cell deubiquitinase activity can be performed to determine selectivity of these compounds (FIG. 5C). These experiments delineate a simple, powerful biomarker for determining the dose-efficacy relationship in the pre-clinical/clinical evaluation of irreversible USP7 inhibitors. Inhibitors were also tested in cells for effects on various PD markers, including three major USP7 substrates, DNMT1, UHRF1 and HDM2 .

DNMT1, UHRF1 and HDM2 = assay: Immunoblot of USP7 substrates DNMT1, UHRF1 and HDM2 in Jurkat cells; assay type: cell-based; conditions: 24 h treatment, immunoblot (FIG. 6)
Experimental: FIG. 6 graphically illustrates a decrease in USP7 oncogenic substrates DNMT1, UHRF1 and HDM2 levels in Jurkat cells treated with the USP7i compound 5. 20 μg total cell lysates from each samples were separated on 10% SDS-PAGE and immunoblotted with antibodies against DNMT1, UHRF1, HDM2 and Actin (loading control).
Jurkat cells were incubated with an exemplary compound of the present invention (e.g., compound 5), washed, and incubated for an additional 0-96 h. USP7 was immuno-precipitated from lysates and USP7 activity measured. […] Total cell deubiquitinase activity can be performed to determine selectivity of these compounds (FIG. 5C). These experiments delineate a simple, powerful biomarker for determining the dose-efficacy relationship in the pre-clinical/clinical evaluation of irreversible USP7 inhibitors. Inhibitors were also tested in cells for effects on various PD markers, including three major USP7 substrates, DNMT1, UHRF1 and HDM2 .

[1] = pooled analysis of 14 phase I-III studies, various doses; cited from earlier work

With `CS(=O)(=O)c1cccc(NC(=O)c2cc([N+](=O)[O-])c(Sc3c(Cl)cncc3Cl)s2)c1` [compound 5, 5-[(3,5-dichloropyridin-4-yl)sulfanyl]-N-[3-(methylsulfonyl)phenyl]-4-nitrothiophene-2-carboxamide] the “covalent adduct formation with wild type USP7 core” value (USP7core WT) was “covalent irreversible adduct formation; also recorded: formed a covalent adduct”, the “covalent adduct formation with active site mutant USP7 core C223A” value (USP7core C223A) was “not in the active site cysteine mutant enzyme; also recorded: failed to form an adduct” and the “USP7 catalytic activity returned” value (USP7; 48 hours after washout) was “about 55%”. For the same molecule, the “USP7 catalytic activity returned” value (USP7; 72 hours after washout) was 68%, the “inhibition of USP7 activity after pulse treatment” value (USP7; Jurkat cells, 10 μM for 2 h, up to 72 h (FIG. 5B)) was “prolonged inhibition of USP7 activity, even after 72 h” and the DNMT1 level (DNMT1, UHRF1 and HDM2) was “decrease”. The HDM2 level (DNMT1, UHRF1 and HDM2) was “decrease” and the UHRF1 level (DNMT1, UHRF1 and HDM2) was “decrease”.

In the case of ipilimumab, the “patients who experienced immune-related adverse effects” value [1] is given as 64%.
